According to patent US11274083B2, “Substituted thiophenyl uracils, salts thereof and the use thereof as herbicidal agents” (Syngenta Crop Protection AG, priority 2017, dated 2022):

Assays:
Assay type in all cases: in vivo
Glycine max = assay: Crop compatibility post-emergence, greenhouse pot test; conditions: application rate 5 g/ha
In short: (§1)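 Sandy loam pots, greenhouse; one-leaf stage, 2–3 wk post-sowing; WP or EC, aq. spray on green parts, 0.5% additive, 600 L/ha; ~3 wk; visual score % vs untreated (0 = control-like, 100 = dead).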

Oryza sativa = assay: as above
In short: as §1

Triticum aestivum = assay: as above
In short: as §1

Matricaria inodora [1] = assay: Herbicidal action pre-emergence, greenhouse pot test; conditions: application rate 320 g/ha
Echinochloa crus-galli [2] = assay: Herbicidal action post-emergence, greenhouse pot test
In short: (§2)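 Test plants, treated at the one-leaf stage 2 to 3 weeks after sowing in sandy loam, received a foliar spray at 80 g/ha or lower. Visual damage was rated about 3 weeks later as percent efficacy versus untreated plants.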

Stellaria media [3] = assay: as above
In short: as §2

Abutilon theophrasti [4] = assay: as above
In short: as §2

Amaranthus retroflexus [5] = assay: as above
In short: as §2

Lolium rigidum [6] = assay: as above; conditions: application rate 80 g/ha
In short: as §2

Pharbitis purpurea [7] = assay: as above
In short: as §2

Viola tricolor [8] = assay: as above
In short: as §2

Setaria viridis [9] = assay: as above
In short: as §2

Matricaria inodora [10] = assay: as above
In short: as §2

Polygonum convolvulus [11] = assay: as above
In short: as §2

Veronica persica [12] = assay: as above
In short: as §2

Echinochloa crus-galli [13] = assay: Herbicidal action pre-emergence, greenhouse pot test; conditions: application rate 320 g/ha
In short: (§3)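 Under good greenhouse growth conditions, treated pots are compared visually with untreated ones about three weeks after spraying; the score runs from 0% (like control) to 100% (plants died). Treatment was a WP or EC spray to the soil over sown seeds, at up to 320 g/ha.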

Stellaria media [14] = assay: as above; conditions: application rate 320 g/ha
In short: as §3

Abutilon theophrasti [15] = assay: as above; conditions: application rate 320 g/ha
In short: as §3

Amaranthus retroflexus [16] = assay: as above; conditions: application rate 80 g/ha
In short: as §3

Alopecurus myosuroides [17] = assay: as above; conditions: application rate 320 g/ha
In short: as §3

Lolium rigidum [18] = assay: as above; conditions: application rate 320 g/ha
In short: as §3

Pharbitis purpurea [19] = assay: as above; conditions: application rate 320 g/ha
In short: as §3

Viola tricolor [20] = assay: as above; conditions: application rate 320 g/ha
In short: as §3

Hordeum murinum = assay: as above; conditions: application rate 320 g/ha
In short: as §3

Avena fatua = assay: as above; conditions: application rate 320 g/ha
In short: as §3

Cyperus esculentus = assay: as above; conditions: application rate 320 g/ha
In short: as §3

Setaria viridis [21] = assay: as above; conditions: application rate 320 g/ha
In short: as §3

Polygonum convolvulus [22] = assay: as above; conditions: application rate 320 g/ha
In short: as §3

Veronica persica [23] = assay: as above; conditions: application rate 320 g/ha
In short: as §3

Zea mays = assay: Crop compatibility post-emergence, greenhouse pot test
In short: as §1

Digitaria sanguinalis = assay: Herbicidal action post-emergence, greenhouse pot test; conditions: application rate 20 g/ha
Alopecurus myosuroides [24] = assay: as above; conditions: application rate 20 g/ha, scored visually after about 3 weeks vs untreated controls
In short: as §2

Row | SMILES | Glycine max (Efficacy in %) (Glycine max) [%] | Triticum aestivum (Efficacy in %) (Triticum aestivum; application rate 5 g/ha) [%] | Matricaria inodora (Efficacy in %) (Matricaria inodora [1]) [%] | Echinochloa crus-galli (Efficacy in %) (Echinochloa crus-galli [2]; application rate 80 g/ha) [%] | Stellaria media (Efficacy in %) (Stellaria media [3]; application rate 80 g/ha) [%] | Abutilon theophrasti (Efficacy in %) (Abutilon theophrasti [4]; application rate 80 g/ha) [%] | Amaranthus retroflexus (Efficacy in %) (Amaranthus retroflexus [5]; application rate 80 g/ha) [%] | Pharbitis purpurea (Efficacy in %) (Pharbitis purpurea [7]; application rate 80 g/ha) [%] | Viola tricolor (Efficacy in %) (Viola tricolor [8]; application rate 80 g/ha) [%] | Setaria viridis (Efficacy in %) (Setaria viridis [9]; application rate 80 g/ha) [%] | Veronica persica (Efficacy in %) (Veronica persica [12]; application rate 80 g/ha) [%] | Echinochloa crus-galli (Efficacy in %) (Echinochloa crus-galli [13]) [%] | Stellaria media (Efficacy in %) (Stellaria media [14]) [%] | Abutilon theophrasti (Efficacy in %) (Abutilon theophrasti [15]) [%] | Amaranthus retroflexus (Efficacy in %) (Amaranthus retroflexus [16]) [%] | Alopecurus myosuroides (Efficacy in %) (Alopecurus myosuroides [17]) [%] | Lolium rigidum (Efficacy in %) (Lolium rigidum [18]) [%] | Pharbitis purpurea (Efficacy in %) (Pharbitis purpurea [19]) [%] | Setaria viridis (Efficacy in %) (Setaria viridis [21]) [%] | Polygonum convolvulus (Efficacy in %) (Polygonum convolvulus [11]; application rate 20 g/ha) [%] | other results
1 | CC(Sc1cc(-n2c(=O)cc(C(F)(F)F)n(C)c2=O)c(F)cc1Cl)C(=O)OCC(=O)N(C)C (centres unmarked) [I.1-241] | 10 | 10 | 100 | 100 | 100 | 100 | 100 | 100 | 100 | 100 | 100 | 100 | 100 | 100 | 100 | 100 | 100 | 100 | 100 |  | Oryza sativa (Efficacy in %) (Oryza sativa; application rate 5 g/ha): 10%; Lolium rigidum (Efficacy in %) (Lolium rigidum [6]): 90%; Matricaria inodora (Efficacy in %) (Matricaria inodora [10]; application rate 80 g/ha): 100%; Polygonum convolvulus (Efficacy in %) (Polygonum convolvulus [11]; application rate 80 g/ha): 100%; Viola tricolor (Efficacy in %) (Viola tricolor [20]): 100%; Hordeum murinum (Efficacy in %) (Hordeum murinum): 100%; Avena fatua (Efficacy in %) (Avena fatua): 100%; Cyperus esculentus (Efficacy in %) (Cyperus esculentus): 100%; Polygonum convolvulus (Efficacy in %) (Polygonum convolvulus [22]): 100%; Veronica persica (Efficacy in %) (Veronica persica [23]): 100%
2 | CCC(Sc1cc(-n2c(=O)cc(C(F)(F)F)n(C)c2=O)c(F)cc1Cl)C(=O)OCCC(=O)OCc1ccccc1 (centres unmarked) [I.2-6] | 20 |  |  |  |  |  |  |  |  |  |  |  |  |  |  |  |  |  |  | 100 | Oryza sativa (Efficacy in %) (Oryza sativa; application rate 20 g/ha): 10%; Triticum aestivum (Efficacy in %) (Triticum aestivum; application rate 20 g/ha): 20%; Zea mays (Efficacy in %) (Zea mays; application rate 5 g/ha): 0%; Digitaria sanguinalis (Efficacy in %) (Digitaria sanguinalis): 80%; Echinochloa crus-galli (Efficacy in %) (Echinochloa crus-galli [2]; application rate 20 g/ha): 100%; Stellaria media (Efficacy in %) (Stellaria media [3]; application rate 20 g/ha): 100%; Abutilon theophrasti (Efficacy in %) (Abutilon theophrasti [4]; application rate 70 g/ha): 100%; Amaranthus retroflexus (Efficacy in %) (Amaranthus retroflexus [5]; application rate 20 g/ha): 100%; Alopecurus myosuroides (Efficacy in %) (Alopecurus myosuroides [24]): 80%; Pharbitis purpurea (Efficacy in %) (Pharbitis purpurea [7]; application rate 20 g/ha): 100%; Viola tricolor (Efficacy in %) (Viola tricolor [8]; application rate 20 g/ha): 100%; Setaria viridis (Efficacy in %) (Setaria viridis [9]; application rate 20 g/ha): 100%; Matricaria inodora (Efficacy in %) (Matricaria inodora [10]; application rate 20 g/ha): 100%; Veronica persica (Efficacy in %) (Veronica persica [12]; application rate 20 g/ha): 100%
3 | COC(=O)CCOC(=O)C(C)(C)Sc1cc(-n2c(=O)cc(C(F)(F)F)n(C)c2=O)c(F)cc1Cl [I.46-2] | 20 |  | 100 | 100 | 80 | 100 | 100 | 100 | 80 | 100 | 80 | 100 | 100 | 100 | 100 | 90 | 100 | 100 | 100 | 100 | Oryza sativa (Efficacy in %) (Oryza sativa; application rate 80 g/ha): 20%; Triticum aestivum (Efficacy in %) (Triticum aestivum; application rate 20 g/ha): 20%; Zea mays (Efficacy in %) (Zea mays; application rate 20 g/ha): 20%; Matricaria inodora (Efficacy in %) (Matricaria inodora [10]; application rate 20 g/ha): 100%; Polygonum convolvulus (Efficacy in %) (Polygonum convolvulus [22]): 100%; Veronica persica (Efficacy in %) (Veronica persica [23]): 100%
4 | CCCCC(Sc1cc(-n2c(=O)cc(C(F)(F)F)n(C)c2=O)c(F)cc1Cl)C(=O)OCCC(=O)OCc1ccccc1 (centres unmarked) [I.47-6] | 20 | 20 |  |  |  |  |  |  |  |  |  |  |  |  |  |  |  |  |  | 100 | Oryza sativa (Efficacy in %) (Oryza sativa; application rate 20 g/ha): 20%; Zea mays (Efficacy in %) (Zea mays; application rate 20 g/ha): 20%; Digitaria sanguinalis (Efficacy in %) (Digitaria sanguinalis): 80%; Stellaria media (Efficacy in %) (Stellaria media [3]; application rate 20 g/ha): 80%; Abutilon theophrasti (Efficacy in %) (Abutilon theophrasti [4]; application rate 70 g/ha): 100%; Amaranthus retroflexus (Efficacy in %) (Amaranthus retroflexus [5]; application rate 20 g/ha): 100%; Pharbitis purpurea (Efficacy in %) (Pharbitis purpurea [7]; application rate 20 g/ha): 100%; Viola tricolor (Efficacy in %) (Viola tricolor [8]; application rate 20 g/ha): 100%; Setaria viridis (Efficacy in %) (Setaria viridis [9]; application rate 20 g/ha): 100%; Veronica persica (Efficacy in %) (Veronica persica [12]; application rate 20 g/ha): 100%
